The NIST ThermoML archive (doi:10.1016/j.fluid.2014.10.003)
Values joined by “and” are separate entries in the source; they are usually repeats but may differ in a detail not shown here. Equal entries are not always repeated. Numbers after ± are expanded uncertainties.

Settings: Liquid, Vibrating tube method

CCCCC(CC)COC(=O)c1ccc(C(=O)OCC(CC)CCCC)c(C(=O)OCC(CC)CCCC)c1 (configuration not stated) [tris(2-ethylhexyl) trimellitate]
Settings	mass density
293.15 K, 100 kPa	988.2 ± 2 kg/m3
293.15 K, 2510 kPa	989.6 ± 2 kg/m3
293.15 K, 5000 kPa	991 ± 2 kg/m3
293.15 K, 7510 kPa	992.4 ± 2 kg/m3
293.15 K, 10010 kPa	993.8 ± 2 kg/m3
293.15 K, 15010 kPa	996.6 ± 2 kg/m3
293.15 K, 19990 kPa	999.2 ± 2 kg/m3
293.15 K, 30010 kPa	1004.3 ± 2 kg/m3
293.15 K, 40020 kPa	1009.2 ± 2 kg/m3
293.15 K, 50030 kPa	1013.8 ± 2 kg/m3
293.15 K, 68010 kPa	1021.5 ± 2.1 kg/m3
313.15 K, 100 kPa	973.4 ± 2 kg/m3
313.15 K, 2500 kPa	974.9 ± 2 kg/m3
313.15 K, 2510 kPa	974.9 ± 2 kg/m3
313.15 K, 5020 kPa	976.4 ± 2 kg/m3 and 976.5 ± 2 kg/m3
313.15 K, 7490 kPa	977.9 ± 2 kg/m3
313.15 K, 10010 kPa	979.4 ± 2 kg/m3 and 979.5 ± 2 kg/m3
313.15 K, 15010 kPa	982.4 ± 2 kg/m3
313.15 K, 20000 kPa	985.3 ± 2 kg/m3
313.15 K, 30030 kPa	990.8 ± 2 kg/m3
313.15 K, 40000 kPa	996 ± 2 kg/m3
313.15 K, 40020 kPa	996 ± 2 kg/m3
313.15 K, 50000 kPa	1001 ± 2 kg/m3
313.15 K, 68000 kPa	1009.3 ± 2 kg/m3
333.15 K, 100 kPa	958.9 ± 1.9 kg/m3
333.15 K, 2500 kPa	960.4 ± 1.9 kg/m3 and 960.5 ± 1.9 kg/m3
333.15 K, 5000 kPa	962.1 ± 1.9 kg/m3
333.15 K, 7510 kPa	963.8 ± 1.9 kg/m3
333.15 K, 10010 kPa	965.4 ± 1.9 kg/m3
333.15 K, 15010 kPa	968.6 ± 1.9 kg/m3
333.15 K, 20000 kPa	971.6 ± 2 kg/m3
333.15 K, 30010 kPa	977.6 ± 2 kg/m3
333.15 K, 39990 kPa	983.1 ± 2 kg/m3
333.15 K, 50000 kPa	988.4 ± 2 kg/m3
333.15 K, 67990 kPa	997.2 ± 2 kg/m3
353.15 K, 100 kPa	944.5 ± 1.9 kg/m3
353.15 K, 2490 kPa	946.2 ± 1.9 kg/m3
353.15 K, 5020 kPa	948.1 ± 1.9 kg/m3
353.15 K, 7510 kPa	949.8 ± 1.9 kg/m3
353.15 K, 10020 kPa	951.6 ± 1.9 kg/m3
353.15 K, 14990 kPa	955 ± 1.9 kg/m3
353.15 K, 20010 kPa	958.3 ± 1.9 kg/m3
353.15 K, 30000 kPa	964.7 ± 1.9 kg/m3
353.15 K, 40020 kPa	970.6 ± 2 kg/m3
353.15 K, 49990 kPa	976.2 ± 2 kg/m3
353.15 K, 68000 kPa	985.5 ± 2 kg/m3
373.15 K, 100 kPa	930.1 ± 1.9 kg/m3
373.15 K, 2510 kPa	932 ± 1.9 kg/m3
373.15 K, 5020 kPa	934 ± 1.9 kg/m3
373.15 K, 7500 kPa	935.9 ± 1.9 kg/m3
373.15 K, 10040 kPa	937.9 ± 1.9 kg/m3
373.15 K, 15000 kPa	941.6 ± 1.9 kg/m3
373.15 K, 20030 kPa	945.2 ± 1.9 kg/m3
373.15 K, 30010 kPa	952 ± 1.9 kg/m3
373.15 K, 40020 kPa	958.3 ± 1.9 kg/m3
373.15 K, 49990 kPa	964.3 ± 1.9 kg/m3
373.15 K, 68010 kPa	974.2 ± 2 kg/m3
